Assay results from PubChem BioAssay (NCI).
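Protocol summary: plate cells (96-well), add compound at 5 concentrations, incubate 48 h, interpolate endpoints linearly. The concentration for 50% growth inhibition is given as GI50. Definition used: TGI = concentration required for complete inhibition of growth.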

How the values were obtained:
Experiment in all cases: NCI anticancer screen, dose series, 48 h
[1] = tested on: BT-549 breast
[2] = tested on: 786-0 renal
[3] = tested on: SNB-75 CNS
[4] = tested on: NCI-H226 lung
[5] = tested on: SF-539 CNS
[6] = tested on: IGROV1 ovarian
[7] = tested on: SF-295 CNS
[8] = tested on: OVCAR-3 ovarian
[9] = tested on: RXF 393 renal
[10] = tested on: OVCAR-5 ovarian

Structure (SMILES)	TGI [1] [µM]	TGI [2] [µM]	TGI [3] [µM]	TGI [4] [µM]	TGI [5] [µM]	TGI [6] [µM]	TGI [7] [µM]	TGI [8] [µM]	TGI [9] [µM]	TGI [10] [µM]	GI50 [1] [µM]	GI50 [2] [µM]	GI50 [3] [µM]	GI50 [5] [µM]	GI50 [6] [µM]	GI50 [7] [µM]	GI50 [8] [µM]	GI50 [9] [µM]	GI50 [10] [µM]	GI50 [4] [µM]
CC1(C)OCN(c2ccc(Cl)cc2)Cn2c1nc1ccccc12	> 100	> 100	> 100	> 100	> 100	> 26.7	> 100	> 100	> 100	> 100										
COc1ccc(-c2ccc(-c3ccc(C(=N)N)cn3)s2)cc1Cl	3.43	4.03	2.85		3.11	3.28	3.27	3.32	3.87	3.02	1.67	1.98	1.45	1.64	1.57	1.72	1.83	1.98	1.55	
CCS/C(Nc1ccccc1)=C(\C#N)C(=O)Nc1ccc(OC)cc1	> 100	> 100	7.21	50.7	4.81	> 100	> 100	8.59	7.86	> 100	2.8	4.14	2.13	1.96	5.3	3.06	2.6	2.24	5.52	5.45
Cc1nc(C(N)=S)sc1C(=O)/C=C/c1cccc(O)c1		> 100	> 100	> 100	> 100	> 100	> 100	> 100	> 100	> 100										
COC(=O)C1=C(C(=O)OC)C2(C(=O)OC)OC1(OC)C(C1(C(=O)OC)C(C(=O)OC)=C1C(=O)OC)=C2C(=O)OC (stereo not drawn)		> 100	> 100	> 100	> 100	> 100	> 100	> 100	> 100	> 100										
COc1ccc(C(O)c2cc3c(N)c(C(=O)Nc4cccc(Br)c4)sc3nc2C)cc1 (stereo not drawn)	> 23.2	> 39.4		> 47	0.0833	> 100	> 31.7	0.322		> 100	0.17	0.225	0.0693	0.0248	0.231	0.11	0.0949		0.216	0.18
CCN(CC)CCCNC(=O)Cc1ccccc1Nc1c(Cl)cccc1Cl		21.8	21.8	38.5	28.7	36.5	32.7	31.5	30.6	23.5										
Fc1ccc(-c2ncn(C3CCNCC3)c2-c2ccnc(Oc3cccc(F)c3)n2)cc1	> 25	> 25	> 25		> 25	> 25	> 25	> 25	> 13.3	> 25	> 24	> 23.5	14.8	10.7	12.4	12.4	> 20.9	5.32	22.2	
COC1=C(OC)CCC(/C(C#N)=C/c2ccc(OC)c(OC)c2)=C1		> 100	43	> 100	> 100	> 100	> 100	> 100	92.9	> 100										
O=[N+]([O-])c1ccc(Cl)c(C2SCc3nc4ccccc4n32)c1 (stereo not drawn)		> 100	89.9	69.1	> 100	> 100	> 100	> 100	> 100	> 100										
CC(C)C(N)(C(=O)O)c1ccccc1 (stereo not drawn)	> 100	> 100	> 100	> 100		> 100	> 100	> 100	> 100	> 100										
CC(=O)/C(C)=N/N/C(N)=N\S(=O)(=O)c1cc(C(=O)Nc2ccccc2)c(Cl)cc1SCc1ccccc1	> 100	> 100	> 100	> 100	8.05	> 100	> 100	> 100		> 100	23.8	0.766	> 100	2.79	29.9	43.1	> 100		> 100	66.7
COc1cccc(C2C(C(=O)Nc3cc(=O)n(C)c(=O)n3C)=C(C)NC(C)=C2C(=O)Nc2cc(=O)n(C)c(=O)n2C)c1O		> 100	> 100	> 100	> 100	> 100	> 100	> 100	> 100	> 100										
COc1ccc(NC(=O)c2cc(OC)c(OC)c(OC)c2)cc1O	> 100	> 100	> 100	> 100	> 100	> 100	> 100		83.9	> 100	21.7	45.7	1.56	2.75	8.86	2.78		3.75	40.1	13.8
Cn1ccnc1C(=O)/C=C/c1ccc(C(=O)Nc2nc3ccccc3[nH]2)cc1	> 25	> 25	15.9		18	> 25	> 25	17.2	> 25	> 25	1.73	4.44	1	2.7	5.67	> 25	0.894	4.51	5.6	
CC(C)(C)CC(C)(C)c1ccc(OCCOCCSC(=N)N)cc1	16	3.46	3.85		3.31	4.81	3.27	4.48	3.59	6.5	3.84	1.71	1.37	1.81	2.3	1.72	2.05	1.78	2.4	
